# In ChEMBL document CHEMBL3286381 (J Med Chem, 2014):
# Molecular target: T1, P2Y purinoceptor 11 (Homo sapiens, UniProt Q96G91)
# T1 sequence (Q96G91 whole entry): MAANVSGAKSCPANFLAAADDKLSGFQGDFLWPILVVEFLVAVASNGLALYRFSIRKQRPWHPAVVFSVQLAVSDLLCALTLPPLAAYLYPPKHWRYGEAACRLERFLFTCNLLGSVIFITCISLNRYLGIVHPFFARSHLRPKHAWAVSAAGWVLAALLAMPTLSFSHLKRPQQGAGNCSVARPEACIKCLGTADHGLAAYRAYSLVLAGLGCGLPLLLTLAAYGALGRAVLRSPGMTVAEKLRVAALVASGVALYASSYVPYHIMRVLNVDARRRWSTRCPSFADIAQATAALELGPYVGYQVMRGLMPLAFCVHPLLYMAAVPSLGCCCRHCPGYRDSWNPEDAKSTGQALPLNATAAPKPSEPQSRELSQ
# Test: Agonist activity at human P2Y11 receptor expressed in human 1321N1 cells assessed as increase of intracellular calcium level after 30 mins using fura-2 AM by fluorescence assay
# Type: functional, cell-based
smiles,measurement,value
Nc1ncnc2c1ncn2[C@@H]1O[C@H](CO[P@@](O)(=S)OP(=O)(O)CP(=O)(O)O)[C@@H](O)[C@H]1O,EC50,900 nM
